Test results taken from patent publication US10047084B2, “Imidazolone derivatives, pharmaceutical compositions and uses thereof” (BEIJING FORELANDPHARMA CO. LTD., priority 2013, dated 2018).

Tests used:
PC-3 = assay: CTG cell survival assay, PC-3; type: cell-based; conditions: Homo sapiens, PC-3 cells
In short: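 Cells were exposed to compounds in a 3-fold dilution series, with a top final concentration of 10 uM in 0.1% DMSO. Viable cells were quantified by CellTiter-Glo ATP luminescence.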

mTOR kinase = mTOR kinase (Homo sapiens (Human), UniProt P42345); assay: mTOR kinase activity assay (TR-FRET, GFP-4EBP1 substrate); type: biochemical; conditions: read-out: Enzyme (mTOR) IC50
Chain of mTOR kinase (P42345 1360-2549): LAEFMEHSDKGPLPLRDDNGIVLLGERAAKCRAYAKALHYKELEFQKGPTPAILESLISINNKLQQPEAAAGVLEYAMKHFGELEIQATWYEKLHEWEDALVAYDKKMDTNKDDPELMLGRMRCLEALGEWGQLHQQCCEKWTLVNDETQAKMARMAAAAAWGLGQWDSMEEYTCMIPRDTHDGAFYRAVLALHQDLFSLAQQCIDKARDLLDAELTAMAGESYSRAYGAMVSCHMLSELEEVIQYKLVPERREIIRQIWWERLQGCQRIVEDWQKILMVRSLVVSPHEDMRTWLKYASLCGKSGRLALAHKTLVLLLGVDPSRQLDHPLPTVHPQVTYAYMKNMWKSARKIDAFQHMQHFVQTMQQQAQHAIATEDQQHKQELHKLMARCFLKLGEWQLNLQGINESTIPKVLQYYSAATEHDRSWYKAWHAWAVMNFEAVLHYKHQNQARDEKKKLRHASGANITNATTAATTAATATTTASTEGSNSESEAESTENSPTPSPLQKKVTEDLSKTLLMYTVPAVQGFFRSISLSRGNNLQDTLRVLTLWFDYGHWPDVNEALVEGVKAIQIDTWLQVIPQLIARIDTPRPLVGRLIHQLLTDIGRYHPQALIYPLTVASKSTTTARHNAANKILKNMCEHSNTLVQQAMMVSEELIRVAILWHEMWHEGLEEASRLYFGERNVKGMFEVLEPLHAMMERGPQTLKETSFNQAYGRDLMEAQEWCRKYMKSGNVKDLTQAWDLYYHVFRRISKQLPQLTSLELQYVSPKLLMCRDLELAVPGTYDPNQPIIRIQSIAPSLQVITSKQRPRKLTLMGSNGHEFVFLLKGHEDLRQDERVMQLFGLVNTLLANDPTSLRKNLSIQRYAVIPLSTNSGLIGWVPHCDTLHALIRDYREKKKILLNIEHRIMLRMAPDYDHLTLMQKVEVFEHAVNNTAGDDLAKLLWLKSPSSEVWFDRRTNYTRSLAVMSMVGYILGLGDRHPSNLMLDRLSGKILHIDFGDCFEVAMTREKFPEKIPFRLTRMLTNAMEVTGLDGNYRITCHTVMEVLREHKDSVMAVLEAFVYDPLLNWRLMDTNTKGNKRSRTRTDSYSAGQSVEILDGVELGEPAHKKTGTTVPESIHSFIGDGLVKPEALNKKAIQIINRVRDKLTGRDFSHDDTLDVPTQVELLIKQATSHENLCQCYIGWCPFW

| SMILES | EC50 (PC-3) [nM] | IC50 (mTOR kinase) [nM] |
| --- | --- | --- |
| Cn1cc(-c2ccc(-c3ccc4ncc5c(c4c3)n(C3CCCN(S(C)(=O)=O)C3)c(=O)n5C)cn2)cn1 (centres unmarked) [Example 3, 3-methyl-8-(6-(1-methyl-1H-pyrazol-4-yl)pyridin-3-yl)-1-(1-(methanesulfonyl)piperidin-3-yl)-1H-imidazo[4,5-c]quinolin-2(3H)-one] | < 50 | < 10 |
| Cn1cc(-c2ccc(-c3ccc4ncc5c(c4c3)n([C@H]3CC[C@@H](O)CC3)c(=O)n5C)cn2)cn1 [Example 18, 1-((1s,4s)-4-hydroxycyclohexyl)-3-methyl-8-(6-(1-methyl-1H-pyrazol-4-yl)pyridin-3-yl)-1H-imidazo[4,5-c]quinolin-2(3H)-one] | < 50 | < 10 |
| Cn1cc(-c2ccc(-c3ccc4ncc5c(c4c3)n([C@H]3CCN(S(C)(=O)=O)C3)c(=O)n5C)cn2)cn1 [Example 28, (S)-3-methyl-8-(6-(1-methyl-1H-pyrazol-4-yl)pyridin-3-yl)-1-(1-(methanesulfonyl)pyrrolidin-3-yl)-1H-imidazo[4,5-c]quinolin-2(3H)-one] | < 50 | < 10 |
| Cn1cc(-c2ccc(-c3ccc4ncc5c(c4c3)n([C@@H]3CCCN(S(C)(=O)=O)C3)c(=O)n5C)cn2)cn1 [Example 31, (R)-3-methyl-8-(6-(1-methyl-1H-pyrazol-4-yl)pyridin-3-yl)-1-(1-(methanesulfonyl)piperidin-3-yl)-1H-imidazo[4,5-c]quinolin-2(3H)-one] | 19 | < 10 |
